Measurements taken from patent publication US7238469B2, “Carbon monoxide improves outcomes in tissue and organ transplants and suppresses apoptosis” (priority 2001, dated 2007).

Key:
HO enzymatic activity = HO enzymatic activity (bilirubin generation in microsomes) of transplanted hearts; type: in vivo, mouse hearts transplanted into rats; conditions: 2 days after transplantation
Procedure: HO enzymatic activity was measured by bilirubin generation in heart and liver microsomes. Animals were sacrificed, and the liver and hearts were flushed with ice-cold PBS and frozen at −70° C. until used. Organs were homogenized in four volumes of sucrose (250 mM) Tris-HCl (10 mM/L) buffer (pH 7.4) on ice and centrifuged (28,000 RPM 3×, 20 min, 4° C.). The supernatant was centrifuged (105,000 RPM 3×, 60 min, 4° C.), and the microsomal pellet was resuspended in MgCl2 (2 mM)-potassium phosphate (100 mM) buffer (pH 7.4) and sonicated on ice. The samples (1 mg of protein) were added to the reaction mixture (400 îl) containing rat liver cytosol (2 mg of protein), hemin (50 îM), glucose-6-phosphate (2 mM), glucose-6-phosphate dehydrogenase (0.25 U), and NADPH (0.8 mM) for 60 min at 37° C. in the dark. The formed bilirubin was extracted with chloroform and, OD was measured at 464–530 nm (extinction coefficient, 40 mM/cm for bilirubin). Enzyme activity is expressed as picomoles of bilirubin formed per milligram of protein per 60 min (pmol/mg/h). The protein concentration was determined by the bicinchoninic acid protein assay (Pierce, Georgetown). The background was ˜5 pmol/mg/h. […] Carboxyhemoglobin was measured 2 days after transplantation by using a Corning 865 blood gas analyzer (Clinical Chemistry, Massachusetts General Hospital, Boston, Mass.).

[1] = tested on: mouse 2F–2B endothelial cells; assay: Cellular ELISA for anti-graft Abs and rat C3 binding to mouse endothelial cells; type: in vivo; conditions: rats with mouse cardiac graft under CVF plus CsA
Procedure: Serum levels of rat anti-mouse Abs were measured by cellular-based indirect ELISA. The mouse 2F–2B endothelial cell line (CRL-2168; American Type Culture Collection (ATCC), Manassas, Va.) was used as an antigenic target. Briefly, 2F–2B cells were cultured in DMEM (Life Technologies, Rockville, Md.), 10% FCS, 100 U/ml penicillin, and 100 îg/ml streptomycin (Life Technologies). Glutaraldehyde-fixed 2F–2B cells were incubated (1 h, 37° C.) in the presence of rat serum serially diluted in PBS 0.05% Tween 20 (Sigma) and rat anti-mouse Abs were detected by using mouse anti-rat IgM (MARM-4), IgG1 (MARG1-2), IgG2a (Marg2a-1), IgG2b (MARGb-8), or IgG2c (MARG2c-5) (kind gifts from Prof. H. Bazin, University of Louvain, Brussels, Belgium). Mouse anti-rat Abs were detected by using HRP-labeled goat anti-mouse Fab′ depleted of anti-rat Ig cross reactivity (0.1 îg/ml, 1 h, room temperature; Pierce, Rockford, Ill.). […] Absorbance was measured at Î=490 nm. The relative amount of circulating anti-graft Abs in the serum was expressed as OD (Î=490) taken from one serial dilution in the linear range of the assay (1:32–1:1024).
Binding of rat C3 to mouse endothelial cells was measured by a modified cellular ELISA with mouse 2F–2B endothelial cells as antigenic targets (Miyatake et al, J. Immunol. 160:4114, 1998). Briefly, nonfixed 2F–2B endothelial cells were incubated in the presence of rat serum serially diluted in GVB^++ buffer (1 h, 37° C.). Cells were fixed in PBS, 0.05% glutaraldehyde, and rat C3 deposition was detected by using a mouse anti-rat C3 mAb (Serotec).

VASP = VASP phosphorylation by Western blot in ECs; type: cell-based
Procedure: Cell extracts were prepared, electrophoresed under denaturing conditions (10–12.5% polyacrylamide gels), and transferred into polyvinyldifluoridine membranes (Immobilon P™; Millipore). HO-1 was detected using a rabbit anti-human HO-1 polyclonal antibody (StressGen Biotechnologies). Vasodilatator-stimulated phosphoprotein (VASP) was detected using a rabbit anti-human VASP polyclonal antibody (Calbiochem-Novabiochem). […] Primary antibodies were detected using horseradish peroxidase-conjugated donkey anti-rabbit or goat anti-mouse IgG secondary antibodies (Pierce Chemical Co.). Peroxidase was visualized using the enhanced chemiluminescence assay (Amersham Pharmacia Biotech) according to the manufacturer's instructions, and stored in the form of photoradiographs (Biomax™ MS; Eastman Kodak Co.). […] The amount of phosphorylated ERK, JNK, and p38 MAPK was quantified using ImageQuant® software (Molecular Dynamics). […] Phosphorylated ERK, JNK, and p38 MAPK were normalized to the total amount of total ERK, JNK, and p38 MAPK detected in the same membrane.
Most biological functions attributed to CO have been linked to its ability to bind guanylcyclase and increase the generation of cGMP. […] (B) Activation of guanylcyclase was monitored in BAECs by analyzing the phosphorylation of VASP. […] (D) Phosphorylation of VASP was analyzed by Western blot as described above in B. N.T., nontreated. […]

| SMILES | influence on C3 deposition on mouse endothelial cells [1] | influence on anti-mouse Ab (IgM) response [1] | VASP phosphorylation (VASP) | also measured |
| --- | --- | --- | --- | --- |
| [C-]#[O+] [CO, carbon monoxide] | – | – | – | total HO enzymatic activity in transplanted mouse hearts (HO enzymatic activity; rats treated with SnPPIX and exposed to CO): 43.6 ± 7.57 pmol/mg/h |
| C=CC1=C(C)c2cc3[n-]c(cc4[n-]c(cc5nc(cc1n2)C(C)=C5C=C)c(C)c4CCC(=O)O)c(CCC(=O)O)c3C.[Fe+2] [FePPIX, iron protoporphyrin] | Neither SnPPIX or FePPIX treatment influenced C3 deposition | did not influence this Ab response | – | – |
| O=c1onc2cnc3ccccc3n12 [ODQ, 1H[1,2,4]oxadiazolo[4,3-α]quinoxalin-1] | – | – | prevent constitutive VASP phosphorylation | – |
| C=Cc1c2[n-]c(c1C)/C=c1\[n-]/c(c(C)c1C=C)=C\c1[n-]c(c(CCC(=O)O)c1C)C=c1[n-]/c(c(C)c1CCC(=O)O)=C\2.[Sn+4] [SnPPIX, tin protoporphyrin IX] | Neither SnPPIX or FePPIX treatment influenced C3 deposition | did not influence this Ab response | – | total HO enzymatic activity in transplanted mouse hearts (HO enzymatic activity): 32.37 ± 7.23 pmol/mg/h |
| Nc1nc2c(nc(Br)n2[C@@H]2O[C@@H]3COP(=O)(O)O[C@H]3[C@H]2O)c(=O)[nH]1 [8-Br-cGMP, 8-bromoguanosine-3′-5′-cyclic-monophosphate] | – | – | induce VASP phosphorylation | – |
